Test results: patent publication US20200281873A1, “Adamantane or Bicyclic Monoterpenoid Derivatives for Use in the Treatment of Leishmaniasis” (Commissariat a l'Energie Atomique et aux Energies …, priority 2017, published 2020)
Like-named read-outs stand apart in the source and are kept apart here.

How the values were obtained:
[1] = test system: L. infantum intramacrophagic amastigotes; assay: L. donovani infantum/RAW 264.7 macrophage model (intramacrophagic amastigotes, SYBR Green I); type: cell-based, Leishmania donovani infantum
Protocol: Protocol for Evaluation on the L. donovani infantum/RAW 264.7 Macrophage Model (Intramacrophagic Amastigotes)
Mouse macrophage cells RAW 264.7 (ATCC) were seeded into a 96-well microplate and maintained in DMEM medium (Applied Biosystems, France) supplemented with 10% heat-inactivated fetal bovine serum in a 5% CO2 incubator at 37° C. for 24 h. Then, the medium was replaced with 100 μL fresh medium containing a suspension of 10^5 L. infantum amastigotes and the incubation time was 16 h. Then, extracellular parasites were eliminated from the medium and 100 μL fresh medium containing compound in various concentrations were added for a 48 h-incubation. Parasite growth was determined by using SYBR® Green I (Life technology, Fisher Scientific, France), a dye with marked fluorescence enhancement upon contact with DNA. The cell lysis suspension was diluted 1:1 in lysis buffer (10 mM NaCl, 1 mM Tris HCl pH8, 2.5 mM EDTA pH 8, 0.05% SDS, 0.01 mg/mL proteinase K and 10×SYBR Green I). Incorporation of SYBR Green I in DNA amplification was measured using the Master epRealplex cycler® (Eppendorf, France) according to the following program to increase the SYBR green incorporation: 90° C. for 1 min, decrease in temperature from 90° C. to 10° C. for 5 min with reading the fluorescence at 10° C. for 1 min and a new reading at 10° C. for 2 min. The EC50 as the concentration inhibiting the parasite growth by 50% was calculated by nonlinear regression using icestimator website 1.2 version: http://www.antimalarial-icestimator.net/MethodIntro.htm.

[2] = test system: Leishmania infantum axenic amastigotes; assay: Evaluation on Leishmania donovani infantum axenic amastigotes (SYBR Green I); type: cell-based
Protocol: Protocol for Evaluation on Leishmania donovani infantum Axenic Amastigotes
Amastigote forms of the parasite were suspended to yield 10^7 parasitic cells mL^−1. The maximum final compound concentration used was 100 μM. Triplicates were used for each concentration. Cultures were incubated at 37° C. for 72 h in the dark and under a 5% CO2 atmosphere, then the viability of the amastigotes was assessed using the SYBR® Green I (Invitrogen, France) incorporation method. Parasite growth was determined by using SYBR® Green I, a dye with marked fluorescence enhancement upon contact with parasite DNA. Parasites were lysed and quantified by Direct PCR-Cell Genotyping without DNA isolation protocol (Euromedex, France). 10 μL of lysed parasite solution from each well was added to 40 μL of PCR-Cell reagent containing the SYBR® green I in a qPCR plate of 96 wells, and the contents were mixed. Fluorescence was measured with Mastercycler® ep realplex (Eppendorf, France). Measured fluorescence was compared to that from the range obtained with different parasite densities. The antileishmanial activity was expressed as IC50 in μM (concentration of drug inhibiting 50% of the parasite growth, comparatively to the controls treated with the excipient only).

[3] = test system: L. donovani (MHOM/ET/67/HU3) amastigotes; assay: In vivo antileishmanial evaluation, Leishmania donovani/Balb/c mouse model (liver parasite load); conditions: for % reduction of parasite burden in the liver / LDU ± SD (parasites in the liver): Balb/c mice
Protocol: Compounds VP343, VP370 were evaluated in vivo for their antileishmanial properties by oral and intravenous route on the Leishmania donovani/Balb/c mouse model, comparatively to miltefosine, used as reference drug, according to a previously described protocol (Balaraman et al., 2015). Six- to eight-week-old Balb/c mice (Élevages Janvier, Le Genest Saint Isle, France) were infected intravenously on day 1 with 10^7 L. donovani (MHOM/ET/67/HU3) amastigotes derived from the spleen of hamsters and randomly sorted into four groups of 10 mice and one group of 12 mice as infected controls but not treated. The treatment administered orally or intravenously, started one week post-infection, on day 8, and continued for 5 consecutive days. At day 15, all groups of mice were autopsied and livers and spleens were weighed. Parasite load in the liver was determined by counting the number of amastigotes/500 liver cells in Giemsa-stained impression smears prepared from the liver and applying Stauber's formula. Three researchers counted the slides independently and the results are expressed as the mean values±SD. The parasite burden of treated groups and controls were compared using Student's t-test or the Kruskal-Wallis nonparametric analysis of variance test for comparing two groups. Significance was established for a P value<0.05.

[4] = In vivo toxicity evaluation by oral route in mice (serum biochemical parameters); design: species or system Balb/C female mice; Serum urea: unit not given here
Protocol: Biochemical parameters relative to VP343 and VP370 toxicity in Balb/C female mice (18-20 g) after a single treatment by oral route at 100 mg/kg under a 0.1 mL volume (=5 mL/kg). Serum were collected one week after the treatment. Excipient: Methylcellulose 1%+Tween 0.1%.
Dosages were performed with a Cobas 800 (Roche/Hitachi) apparatus.

[5] = test system: L. infantum intramacrophagic amastigotes; assay: L. donovani infantum/RAW 264.7 macrophage model (intramacrophagic amastigotes, SYBR Green I); type: cell-based, Leishmania donovani infantum; conditions: Table I; ratio
RAW 264.7 macrophages = assay: Cytotoxicity on RAW 264.7 macrophages; type: cell-based, Mouse; conditions: Table I
[6] = Cytotoxicity on RAW 264.7 macrophages; type: cell-based, Mouse; conditions: mouse, RAW 264.7 macrophages; Table I
[7] = Leishmania infantum, Macrophage, Table II, 3 different experiments, SYBR Green I method, read-out: IC50 intramacrophagic
[8] = Leishmania infantum, Table II, 3 different experiments, SYBR Green I method, read-out: IC50 axenic
[9] = single oral treatment 100 mg/kg, serum one week after treatment
[10] = Leishmania infantum, RAW264.7, Table I, RAW 264.7 macrophages, 48 h incubation, read-out: Intramacrophagic amastigotes IC50
[11] = Leishmania infantum, Table I, 72 h incubation, read-out: Axenic amastigotes IC50
[12] = intravenous route, 10 mg/kg/day × 5

Structure (SMILES) | IC50 [1, 7] [nM] | IC50 [2, 8] [nM] | also measured
Cc1ccc(-c2ccc(CN[C@H]3C[C@H]4C[C@@H]([C@@H]3C)C4(C)C)cc2)cc1 [VP396] | 210 | 5560 | –
Cc1ccccc1CN[C@H]1C[C@H]2C[C@@H]([C@@H]1C)C2(C)C [VP391] | 210 | 7550 | –
COc1ccc(OC)c(CN[C@H]2C[C@H]3C[C@@H]([C@@H]2C)C3(C)C)c1 [VP369] | 110 | 15400 | –
C[C@@H]1[C@@H](NCc2cccc(Cl)c2)C[C@H]2C[C@@H]1C2(C)C [VP371] | 190 | 30500 | –
C[C@@H]1[C@@H](NCc2ccc(-n3ccnc3)cc2)C[C@H]2C[C@@H]1C2(C)C [VP393] | 290 | 8900 | –
COc1ccc(Br)cc1/C=N/C12CC3CC(CC(C3)C1)C2 [VP300A] | 210 | 4530 | –
C[C@@H]1[C@@H](NCc2ccc3c(c2)Cc2ccccc2-3)C[C@H]2C[C@@H]1C2(C)C [VP397] | 500 | 9720 | –
COc1cccc(OC)c1CN[C@H]1C[C@H]2C[C@@H]([C@@H]1C)C2(C)C [VP370] | 40 | 36300 | % reduction of parasite burden in the liver ([3]; oral route, 20 mg/kg/day × 5): 62.7%; LDU ± SD (parasites in the liver) ([3]; oral route, 20 mg/kg/day × 5, autopsy day 15): 0.46 ± 0.12 ×10^9; Activity in vivo by oral route (in words) ([3]; VP343 and VP370 at 20 mg/kg/day×5, VP343 also at 10 mg/kg/day×5, Tukey's multiple comparisons test): significantly active; Serum AST ± SD [4, 9]: 330 ± 68 U/L; Serum AST ± SD (second AST column) [4, 9]: 197 ± 41 U/L; Serum creatinin [4, 9]: <18 µM; Serum urea [4, 9]: 7.9 ± 1.5; Toxicity after single oral treatment (in words) ([4]; single treatment by oral route at 100 mg/kg): did not show toxicity
COc1ccc(Br)cc1CN[C@@H]1C[C@@H]2C[C@H]([C@H]1C)C2(C)C [VP330] | 250 | 4860 | –
C[C@@H]1[C@H](O)[C@@H](C)/C=C/C=C/C=C/C=C/C=C/C=C/C=C/[C@H](O[C@@H]2O[C@H](C)[C@@H](O)[C@H](N)[C@@H]2O)C[C@@H]2O[C@](O)(C[C@@H](O)C[C@@H](O)[C@H](O)CC[C@@H](O)C[C@@H](O)CC(=O)O[C@H]1C)C[C@H](O)[C@H]2C(=O)O [Amphotericin B, reference compound] | – | – | IC50 ([1]; Table I, RAW 264.7 macrophages, 48 h incubation, read-out: Intramacrophagic amastigotes IC50): 47 ± 5 nM; IC50 ([2]; Table I, 72 h incubation, read-out: Axenic amastigotes IC50): 31 ± 2 nM; Selectivity IC50 (Axenic amastigotes)/IC50 (Intramacrophagic amastigotes) [5]: <1; CC50 (RAW 264.7 macrophages): 4500 ± 400 nM
COc1ccccc1CN[C@H]1C[C@H]2C[C@@H]([C@@H]1C)C2(C)C [VP363] | 190 | 9990 | –
C[C@@H]1[C@@H](NCc2c[nH]c3ccccc23)C[C@H]2C[C@@H]1C2(C)C [VP359] | 250 | > 100000 | –
CCCCCCCCCCCCCCCCOP(=O)([O-])OCC[N+](C)(C)C [Miltefosine, reference compound] | – | – | IC50 [1, 10]: 850 ± 200 nM; IC50 [2, 11]: 1200 ± 500 nM; Selectivity IC50 (Axenic amastigotes)/IC50 (Intramacrophagic amastigotes) [5]: 1.4; % reduction of parasite burden in the liver [3, 12]: 65.9%; LDU ± SD (parasites in the liver) [3, 12]: 0.36 ± 0.08 ×10^8; % reduction of parasite burden in the liver ([3]; oral route, 10 mg/kg/day × 5): 84.6%; LDU ± SD (parasites in the liver) ([3]; oral route, 10 mg/kg/day × 5, autopsy day 15): 0.19 ± 0.09 ×10^9; CC50 [6]: 12500 ± 1300 nM
C[C@@H]1[C@@H](NCc2ccoc2)C[C@H]2C[C@@H]1C2(C)C [VP354] | 420 | 4100 | –
C[C@@H]1[C@@H](NCc2ncc[nH]2)C[C@H]2C[C@@H]1C2(C)C [VP358] | 570 | 13000 | –
COc1ccc(Br)cc1CN[C@@H]1C[C@H]2CC[C@]1(C)C2(C)C [VP305] | 60 | < 500 | –
C[C@@H]1[C@@H](NCc2cc(F)ccc2F)C[C@H]2C[C@@H]1C2(C)C [VP381] | 170 | 58800 | –
COc1ccc(Br)cc1CNC12CC3CC(CC(C3)C1)C2 [ABMA] | 7100 | > 100000 | IC50 [1, 10]: 7100 ± 1700 nM; IC50 [2, 11]: > 100000 nM; Selectivity IC50 (Axenic amastigotes)/IC50 (Intramacrophagic amastigotes) [5]: >14; CC50 [6]: 25300 ± 2400 nM
C[C@@H]1[C@@H](NCc2cccc(Br)c2)C[C@H]2C[C@@H]1C2(C)C [VP361] | 390 | 3700 | –
C[C@@H]1[C@@H](NCc2ccc(I)cc2)C[C@H]2C[C@@H]1C2(C)C [VP390] | 270 | 21600 | –
